According to PubChem BioAssay AID248 (DTP/NCI, 2004):
Several values for one entry are separate records, joined by “and”; a condition that tells them apart may be missing. Identical values can stand only once. Toxic doses and inconclusive results are not listed. Rule as the data show it: active = T/C of 150% or more; inactive = T/C below 125%.

System: L1210 leukemia ip in BDF1 mice, survival T/C
Assay: NCI In Vivo Anticancer Drug Screen. Data for tumor model L1210 Leukemia (intraperitoneal) in B6D2F1 (BDF1) mice
Settings: endpoint: mean survival time, higher = longer survival
How it was run: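 Survival endpoint. Drug-treated group vs vehicle group, expressed as T divided by C. Tumor passaged by transplantation.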

[1] = dose: 100.0 mg/kg/injection, schedule: Q01DX001 (ip), vehicle: carboxymethylcellulose (CMC)
[2] = dose: 200.0 mg/kg/injection, schedule: Q01DX001 (ip), vehicle: carboxymethylcellulose (CMC)
[3] = dose: 400.0 mg/kg/injection, schedule: Q01DX001 (ip), vehicle: carboxymethylcellulose (CMC)
[4] = dose: 50.0 mg/kg/injection, schedule: Q01DX009 (ip), vehicle: saline
[5] = dose: 100.0 mg/kg/injection, schedule: Q01DX009 (ip), vehicle: Klucel (hydroxypropylcellulose) (HPC)

Measured: T/C

COc1ccc(/C=C(/C)[N+](=O)[O-])cc1
inactive: dose: 50.0 mg/kg/injection, schedule: Q01DX001 (ip), vehicle: Klucel (hydroxypropylcellulose) (HPC) 104 % of control | dose: 100.0 mg/kg/injection, schedule: Q01DX001 (ip), vehicle: Klucel (hydroxypropylcellulose) (HPC) 97 % of control | dose: 200.0 mg/kg/injection, schedule: Q01DX001 (ip), vehicle: Klucel (hydroxypropylcellulose) (HPC) 95 % of control and 90 % of control | dose: 300.0 mg/kg/injection, schedule: Q01DX001 (ip), vehicle: Klucel (hydroxypropylcellulose) (HPC) 100 % of control

O=C(NCCCCCCCCNC(=O)N1CC1)N1CC1
inactive: dose: 0.19 mg/kg/injection, schedule: Q01DX009 (ip), vehicle: carboxymethylcellulose (CMC) 101 % of control | dose: 0.29 mg/kg/injection, schedule: Q01DX001 (ip), vehicle: carboxymethylcellulose (CMC) 98 % of control | dose: 0.29 mg/kg/injection, schedule: Q01DX009 (ip), vehicle: carboxymethylcellulose (CMC) 113 % of control | dose: 0.44 mg/kg/injection, schedule: Q01DX001 (ip), vehicle: carboxymethylcellulose (CMC) 95 % of control | dose: 0.44 mg/kg/injection, schedule: Q01DX009 (ip), vehicle: carboxymethylcellulose (CMC) 111 % of control | dose: 0.66 mg/kg/injection, schedule: Q01DX001 (ip), vehicle: carboxymethylcellulose (CMC) 96 % of control | dose: 0.66 mg/kg/injection, schedule: Q01DX009 (ip), vehicle: carboxymethylcellulose (CMC) 108 % of control | dose: 1.0 mg/kg/injection, schedule: Q01DX001 (ip), vehicle: carboxymethylcellulose (CMC) 101 % of control | dose: 1.0 mg/kg/injection, schedule: Q01DX009 (ip), vehicle: carboxymethylcellulose (CMC) 119 % of control | dose: 1.5 mg/kg/injection, schedule: Q01DX009 (ip), vehicle: carboxymethylcellulose (CMC) 109 % of control | dose: 2.25 mg/kg/injection, schedule: Q01DX009 (ip), vehicle: carboxymethylcellulose (CMC) 112 % of control | dose: 6.2 mg/kg/injection, schedule: Q01DX001 (ip), vehicle: carboxymethylcellulose (CMC) 102 % of control

COc1cc(CC2(C#N)c3ccccc3C=CN2C(=O)c2ccccc2)c(Oc2cc(CC3(C#N)c4ccccc4C=CN3C(=O)c3ccccc3)ccc2OC)cc1OC (stereo not given)
inactive: dose: 100.0 mg/kg/injection, schedule: Q04DX003 (ip), vehicle: Klucel (hydroxypropylcellulose) (HPC) 98 % of control | dose: 200.0 mg/kg/injection, schedule: Q04DX003 (ip), vehicle: Klucel (hydroxypropylcellulose) (HPC) 93 % of control | dose: 400.0 mg/kg/injection, schedule: Q04DX003 (ip), vehicle: Klucel (hydroxypropylcellulose) (HPC) 92 % of control

NNc1c(Cl)c(F)c(Cl)c(F)c1Cl
inactive: [1] 104 % of control | [2] 97 % of control | [3] 104 % of control

Nc1c2c(=O)[nH]c(=O)c2c(N)c2c(=O)c3ccccc3c(=O)c12
inactive: dose: 100.0 mg/kg/injection, schedule: Q01DX001 (ip), vehicle: acetone 93 % of control | dose: 200.0 mg/kg/injection, schedule: Q01DX001 (ip), vehicle: acetone 103 % of control | dose: 400.0 mg/kg/injection, schedule: Q01DX001 (ip), vehicle: acetone 103 % of control

C1=CC2CCC1CC2c1ccccc1 (stereo not given)
inactive: dose: 100.0 mg/kg/injection, schedule: Q01DX001 (ip), vehicle: saline 104 % of control | dose: 200.0 mg/kg/injection, schedule: Q01DX001 (ip), vehicle: saline 105 % of control | dose: 400.0 mg/kg/injection, schedule: Q01DX001 (ip), vehicle: saline 114 % of control

CCCOP(OCCC)OCCC
inactive: [4] 93 % of control | dose: 100.0 mg/kg/injection, schedule: Q01DX009 (ip), vehicle: saline 101 % of control | dose: 100.0 mg/kg/injection, schedule: Q04DX003 (ip), vehicle: saline 103 % of control | dose: 200.0 mg/kg/injection, schedule: Q01DX009 (ip), vehicle: saline 98 % of control | dose: 200.0 mg/kg/injection, schedule: Q04DX003 (ip), vehicle: saline 95 % of control

N#C/C(=N\N=Nc1ccccc1)c1cccc2ccccc12
inactive: dose: 100.0 mg/kg/injection, schedule: Q01DX009 (ip), vehicle: gum acacia 94 % of control | dose: 200.0 mg/kg/injection, schedule: Q01DX009 (ip), vehicle: gum acacia 91 % of control

C/C=C\c1ccc(OCCOC(=O)Nc2ccc(Cl)cc2C(F)(F)F)c(OC)c1
inactive: dose: 100.0 mg/kg/injection, schedule: Q01DX009 (ip), vehicle: saline with Tween-80 91 % of control | dose: 200.0 mg/kg/injection, schedule: Q01DX009 (ip), vehicle: saline with Tween-80 96 % of control | dose: 400.0 mg/kg/injection, schedule: Q01DX009 (ip), vehicle: saline with Tween-80 89 % of control

Cc1cc(C)c(C(=O)O)c(O)c1
inactive: [2] 93 % of control

CCn1c(COc2ccc(Cl)cc2Cl)c(COC(=O)c2cccc(Cl)c2)c2ccccc21
inactive: dose: 100.0 mg/kg/injection, schedule: Q01DX009 (ip), vehicle: carboxymethylcellulose (CMC) 98 % of control and 103 % of control | dose: 100.0 mg/kg/injection, schedule: Q04DX002 (ip), vehicle: carboxymethylcellulose (CMC) 101 % of control and 102 % of control | dose: 200.0 mg/kg/injection, schedule: Q01DX009 (ip), vehicle: carboxymethylcellulose (CMC) 97 % of control and 98 % of control | dose: 200.0 mg/kg/injection, schedule: Q04DX002 (ip), vehicle: carboxymethylcellulose (CMC) 94 % of control and 98 % of control | dose: 400.0 mg/kg/injection, schedule: Q01DX009 (ip), vehicle: carboxymethylcellulose (CMC) 87 % of control | dose: 400.0 mg/kg/injection, schedule: Q04DX002 (ip), vehicle: carboxymethylcellulose (CMC) 95 % of control and 91 % of control

CC1(c2cccc3ccccc23)NC(=O)c2ccccc2N1 (stereo not given)
inactive: dose: 50.0 mg/kg/injection, schedule: Q01DX009 (ip), vehicle: Klucel (hydroxypropylcellulose) (HPC) 98 % of control | [5] 103 % of control | dose: 150.0 mg/kg/injection, schedule: Q01DX009 (ip), vehicle: Klucel (hydroxypropylcellulose) (HPC) 101 % of control

CCCCCCCCCCCCCCCCCC(=O)OCCCCCCC
inactive: [5] 102 % of control | dose: 200.0 mg/kg/injection, schedule: Q01DX009 (ip), vehicle: Klucel (hydroxypropylcellulose) (HPC) 102 % of control | dose: 400.0 mg/kg/injection, schedule: Q01DX009 (ip), vehicle: Klucel (hydroxypropylcellulose) (HPC) 112 % of control

Cc1cc(-n2c(C)ccc2C)no1
inactive: dose: 100.0 mg/kg/injection, schedule: Q04DX003 (ip), vehicle: saline with Tween-80 100 % of control | dose: 200.0 mg/kg/injection, schedule: Q04DX003 (ip), vehicle: saline with Tween-80 90 % of control | dose: 400.0 mg/kg/injection, schedule: Q04DX003 (ip), vehicle: saline with Tween-80 101 % of control

COC(C)(C)C(Br)C(=O)OCC(=O)c1ccc(Br)cc1 (stereo not given)
inactive: dose: 50.0 mg/kg/injection, schedule: Q01DX001 (ip), vehicle: carboxymethylcellulose (CMC) 104 % of control | [1] 108 % of control | [2] 102 % of control | [3] 102 % of control

O=C1NC2(C(=O)O1)C1CC3CC(C1)CC2C3 (stereo not given)
inactive: dose: 12.5 mg/kg/injection, schedule: Q01DX009 (ip), vehicle: saline 108 % of control | dose: 25.0 mg/kg/injection, schedule: Q01DX009 (ip), vehicle: saline 107 % of control | [4] 105 % of control | dose: 100.0 mg/kg/injection, schedule: Q04DX003 (ip), vehicle: alcohol 100 % of control | dose: 200.0 mg/kg/injection, schedule: Q04DX003 (ip), vehicle: alcohol 90 % of control | dose: 400.0 mg/kg/injection, schedule: Q04DX003 (ip), vehicle: alcohol 100 % of control

CC[Si](CC)(CC)O[Si](CC)(CC)CC
inactive: dose: 100.0 mg/kg/injection, schedule: Q04DX002 (ip), vehicle: saline 102 % of control | dose: 200.0 mg/kg/injection, schedule: Q04DX002 (ip), vehicle: saline 94 % of control | dose: 400.0 mg/kg/injection, schedule: Q04DX002 (ip), vehicle: saline 97 % of control

Nc1ccc(CSc2ccccc2)cc1F
inactive: dose: 100.0 mg/kg/injection, schedule: Q01DX009 (ip), vehicle: saline + alcohol 94 % of control | dose: 200.0 mg/kg/injection, schedule: Q01DX009 (ip), vehicle: saline + alcohol 93 % of control | dose: 400.0 mg/kg/injection, schedule: Q01DX009 (ip), vehicle: saline + alcohol 86 % of control
